Reference: patent US6906170B1 (Yeda Research and Development Co. Ltd., priority 1998, dated 2005)
No end group written: not given here.

Legend:
[1] = test system: HT-29 cells; experiment: Spontaneous IL-8 secretion from intestinal epithelial cells (ELISA); assay type: cell-based, human; set-up: IL-8 secretion Average O.D.: scale not given here; conditions: peptide 1 nM, 24 h at 37° C.
Experimental: Human colonic epithelial cell lines HT-29 (ATCC HTB38) and Caco-2 (ATCC […]) were obtained from the American Type Culture Collection (ATTC, Rockville, Md.). Cells were maintained in culture medium (DMEM supplemented with 10% cosmic calf serum (CSS), 2 mM glutamine, 100 U/ml penicillin, and 0.1 mg/ml streptomycin), at 37° C. and atmosphere of 5%, CO2. Cell viability was assessed using the standard MTT method.
Spontaneous or cytokine-induced secretion of IL-8 or IL-1β from intestinal epithelial cell. Test cells (HT-29 or Caco-2) were grown as confluent monolayers in 24-well tissue culture plates. […] When TNF-α was used, the peptides were added to the cells 1 hour prior to the addition of TNF-α. Following culture, the supernatants were harvested and analyzed for IL-8 or IL-1β secretion by ELISA using commercially available kits for IL-8 (Pharmingen) and IL-1β (Genzyme), according to the manufacturers' protocols.
The results in Table 1 show the O.D. readings of the ELISA assay (at 405 nm) as well as the percentage of inhibition of IL-8 secretion.

[2] = test system: human T cells; experiment: Secretion of TNF-α and IFN-γ from proliferating T cells; assay type: cell-based; conditions: peptide 1 to 100 pg/ml; not shown
[3] = test system: human T cells; experiment: IL-2-induced T cell adhesion to fibronectin (FN); assay type: cell-based
Experimental: (§1) T cell adhesion assays. Human T cells were purified from the peripheral blood of healthy donors, and T cell adhesion to immobilized protein substrates was examined as follows: Human leukocytes were isolated on a Ficoll gradient, washed, and incubated (2 h, 37° C., 7.5% CO2, humidified atmosphere) on petri dishes. The non-adherent cells were then collected and incubated (1 h, 37° C., 7.5% CO2, humidified atmosphere) on nylon wool columns (Novamed Ltd., Jerusalem, Israel). Unbound cells were eluted from the columns by extensive washings. The resulting cell population was always >92% T cells. […] After 4-6 h at 37° C., the wells were washed and ^51[Cr]-labeled T cells were added to the wells, 10^5 cells/100 μl of adhesion medium (RPMI-1640 supplemented with 0.1% BSA, 1% sodium pyruvate, 1% HEPES buffer). The microtiter plates containing the cells were incubated (30 min, 37° C.) in a humidified, 7.5% CO2 atmosphere, and then washed. The adherent cells were lysed, and the resulting supernatants were removed and analyzed in a γ-counter. For each experimental group, the results were expressed as the mean percentage ±SD of bound T cells from quadruplicate wells.
The effect of synthetic peptides, with putative amino acid compositions corresponding to fractions 2 and 8, on IL-2-induced T cell adhesion to FN. […] These three peptides were synthesized, and their effects on IL-2-induced T cell adhesion to FN were studied. […] The inhibitory dose-response curves of Ile-Val-Leu and […](SEQ ID NO:1) are similar to those of the HPLC fractions 2 and 8, respectively, from which they were derived. […]

[4] = test system: human T cells; experiment: PHA- or IL-2-mediated T cell proliferation; assay type: cell-based; conditions: peptide 1 to 100 pg/ml
Experimental: The in vitro bioassays (a) to (e) are well-known in the art. Thus, for example, assays (a), (b) and (e) may be carried out as described in the section Materials and Methods hereinafter. […] The IL-2-derived peptides or their derivatives are added to the culture wells (different amounts, 10 microliters) for the entire period of the assay. [^3H]-Thymidine is added to the microtiter 96 U-form well plates 18 h before harvesting the cultures on day 3 onto glass fiber filters and counted by liquid scintillation counter. Mean CPM and SD from quadriplicate culture are then presented.

[5] = test system: human T cells; experiment: IL-2-induced T cell adhesion to LN, CO-IV and FN after peptide pre-treatment; assay type: cell-based; conditions: pre-exposed to peptide 10 pg/ml, then IL-2 10 U/ml
Experimental: The T cells were then seeded onto microtiter wells that were pre-coated (1 μg/well) with the various ECM glycoproteins. T cell adhesion was measured 30 min later.
as §1
Ile-Val-Leu, Arg-Met-Leu-Thr (SEQ ID NO:2) and […](SEQ ID NO:1) inhibit T cell adhesion to LN, CO-IV and FN. The next experiment was designed and performed to verify that the three IL-2-derived peptides indeed affect T cell interactions with ECM glycoproteins other than FN. […] The treated cells were then added to microtiter wells coated with CO-IV, LN, and FN.

[6] = test system: human T cells; experiment: T cell chemotaxis through FN-coated polycarbonate membranes; assay type: cell-based; conditions: peptide 1 pg/ml, FN-coated membrane
Experimental: T cell migration towards the chemotactic sources was assessed after 2 hr. One experiment representative of four.
Chemotaxis assays. T cell chemotaxis was performed and analyzed as previously described (Ben-Baruch et al., 1997). Briefly, the migration of human T cells (0.5×10^6 cells in adhesion medium/well) was examined in a 48-well chemotaxis micro-chamber (Neuro-Probe Inc., Cabin John, M D). The two compartments of the micro-chambers were separated by a FN-coated polycarbonate filter (5 μm pore size; Osmonics Protein Products, Livemore, Calif.). […] After incubation (120 min, 37° C., in a humidified, 7.5% CO2 atmosphere); the filters were removed, fixed, and stained with a Diff-Quik staining kit Dade, Düdingen, Switzerland). The number of migrating T cells in five high-power fields (under 500× magnification; WILD Microscope, Heerbrugg, Switzerland) was evaluated. For each group, the results are expressed as the mean number of cells in one high-power field.
Immune cell migration is the outcome of a subtle biological equilibrium existing between adhesion and detachment events. Lymphocyte adhesion to the subendothelial ECM and subsequent migration are two active processes that can overlap, but are not mutually dependent events. Adhesion and migration may depend on the ability of the T cells to continuously integrate different pro- and anti-adhesive signals via their versatile receptors for ECM, chemokines, cytokines, and possibly, also antigenic moieties.

[7] = test system: human T cells; experiment: Induction of T cell adhesion to ECM, FN, LN and CO-IV; assay type: cell-based; conditions: T cells activated only with PMA; not shown

| Molecule | IL-8 secretion Average O.D. ([1]; ELISA O.D. at 405 nm, medium alone 488 ± 8.5, background 71 ± 1.4) | IL-8 secretion % inhibition ([1]; spontaneous secretion) [%] | inhibition of secretion of TNF-α and IFN-γ from proliferating T cells [2] | concentration giving maximum inhibition of IL-2-induced T cell adhesion to FN ([3]; IL-2 10 U/ml) | concentration giving maximum inhibition of IL-2-induced T cell adhesion to FN (molar) ([3]; IL-2 10 U/ml) [pM] | inhibition of adhesion of IL-2-activated T cells to FN ([3]; IL-2 10 U/ml, 30 min at 37° C., dose range) | anti-adhesive effect after removal of peptide prior to IL-2 activation ([3]; T cells pre-treated 1 pg/ml, washed, then IL-2 and FN-coated wells) | relative potency as inhibitor of IL-2-induced T cell adhesion to FN ([3]; among the three IL-2 peptides) | interference with PHA- or IL-2-mediated proliferative responses [4] | inhibition of T cell adhesion to CO-IV, LN and FN [5] | inhibition of T cell migration toward IL-2 ([6]; IL-2 10 U/ml in lower compartment, p<0.01) [%] | inhibition of T cell chemotaxis toward MIP-1β ([6]; MIP-1β in lower compartment) [%] | T cells adhered to immobilized ECM and ECM glycoproteins [7] [%] |
| --- | --- | --- | --- | --- | --- | --- | --- | --- | --- | --- | --- | --- | --- |
| Arg-Met-Leu-Thr (RMLT; not fully specified (C-terminus); printed as Arg-Met-Leu-Thr) [pep3] | 44 ± 0.7 | 107 | nor did these peptides inhibit the secretion of TNF-α and IFN-γ | about 0.1 pg/ml | ~0.2 | inhibited, in a dose-dependent manner | most of the anti-adhesive effects of the three peptides persevered | most potent inhibitor | none of them, at 1 to 100 pg/ml, interfered with either PHA- or IL-2-mediated proliferative responses | inhibit T cell adhesion to the three major cell-adhesive glycoproteins of the ECM | ~90 | 60 |  |
| CCCCCCCCCCCCCC(=O)O[C@@H]1[C@@H](C)[C@@]2(O)[C@@H](C=C(CO)C[C@]3(O)C(=O)C(C)=C[C@@H]23)[C@@H]2C(C)(C)[C@]12OC(C)=O [PMA] |  |  |  |  |  |  |  |  |  |  |  |  | 45±4.4 |
